Results published in PMC6152123, “Sites for Dynamic Protein-Carbohydrate Interactions of O- and C-Linked Mannosides on the E. coli FimH Adhesin” (Molecules : A Journal of Synthetic Chemistry and Natural …, 2017).
Where “and” joins values, the source holds several entries; their conditions need not be identical. Equal values may be shown once. Read-outs that look alike come from different tables or passages of the source.

Legend:
[1] = target: FimH; details: Tables 1-3; read-out: Kd ITC (converted); cited from earlier work
[2] = target: T1, FimH lectin domain (Escherichia coli, UniProt P08191); details: read-out: Kd SPR; solution affinity by SPR; cited from earlier work
[3] = target: T1, FimH lectin domain; assay: biochemical; type: binding, E. coli strain J96
[4] = target: T1, FimH lectin domain; assay: SPR direct binding of FimH to receptor immobilized on sensor chip (steady state affinity); design: species or system E. coli strain J96; details: Ss: steady state affinity (Kd), direct binding of FimH to 5b coupled to CM5 sensor chip
Procedure: The equilibrium dissociation constant Kd of FimH for the mannose derivatives was determined using a competition assay in solution. In this assay, the mannose derivatives compete with an immobilized Fab fragment from the monoclonal anti-FimH antibody 1C10 or with an immobilized 8-aminooctyl α-D-mannopyranoside (5b) for FimH binding, as described earlier [34]. The global kinetic constants ka, kd and Rmax of the FimH-ligand interaction of binding were fitted using the BiaEval software.

[5] = Figure S19, fit of solution affinity model to inhibition curve
[6] = KD(M), Figure S19, fit of solution affinity model to inhibition curve
[7] = Kd SPR (nM), solution affinity by SPR competition, Tables 1-3

T1 sequence (P08191 22-179 limits assumed): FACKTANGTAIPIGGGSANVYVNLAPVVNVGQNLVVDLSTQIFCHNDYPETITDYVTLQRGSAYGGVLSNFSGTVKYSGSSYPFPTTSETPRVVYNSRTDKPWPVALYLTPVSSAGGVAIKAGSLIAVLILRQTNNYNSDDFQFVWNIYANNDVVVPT

Row | SMILES | Kd [3, 7] | other results
1 | CCCCO[C@H]1O[C@H](CO)[C@@H](O)[C@H](O)[C@@H]1O [Compound 4, reference compound] | – | Kd [1]: 156 nM
2 | CCCCCCCO[C@H]1O[C@H](CO)[C@@H](O)[C@H](O)[C@@H]1O [Compound 5, heptyl α-D-mannopyranoside, reference compound] | – | Kd [2]: 4.3 ± 0.3 nM; Kd [1]: 7.3 nM; KA [3, 5]: 231691100 M⁻¹; Kd [3, 6]: 4.32e-09 M
3 | CCCCCCCCO[C@H]1O[C@H](CO)[C@@H](O)[C@H](O)[C@@H]1O [Compound 5a, octyl α-D-mannopyranoside, reference compound] | – | Kd [2]: 21 ± 0.2 nM; KA [3, 5]: 46550590.5 M⁻¹; Kd [3, 6]: 2.15e-08 M
4 | NCCCCCCCCO[C@H]1O[C@H](CO)[C@@H](O)[C@H](O)[C@@H]1O [Compound 5b, 8-aminooctyl α-D-mannopyranoside] | 1.8e-08 ± 4e-10 M | Kd [4]: 16.9 nM and 17 nM
5 | OC[C@H]1O[C@H](OC/C=C/c2ccccc2)[C@@H](O)[C@@H](O)[C@@H]1O [Compound 22] | 5.3e-08 ± 7.5e-09 M | –
6 | OC[C@H]1O[C@H](OC/C=C/c2ccc(-c3ccccc3)cc2)[C@@H](O)[C@@H](O)[C@@H]1O [Compound 23] | 3e-09 ± 1.1e-09 M | –
7 | OC[C@H]1O[C@H](OC/C=C/c2ccccc2-c2ccccc2)[C@@H](O)[C@@H](O)[C@@H]1O [Compound 24] | 4.3e-09 ± 8e-10 M | –
8 | OC[C@H]1O[C@H](OC/C=C/c2cccc3ccccc23)[C@@H](O)[C@@H](O)[C@@H]1O [Compound 25] | 5e-09 ± 1.4e-09 M | Kd [1]: 71 nM
9 | OC[C@H]1O[C@H](OCCCc2ccccc2)[C@@H](O)[C@@H](O)[C@@H]1O [Compound 26] | 5.9e-08 ± 8.5e-09 M | –
10 | OC[C@H]1O[C@H](OCCCc2ccc(-c3ccccc3)cc2)[C@@H](O)[C@@H](O)[C@@H]1O [Compound 27] | 1e-08 ± 2e-10 M | Kd [1]: 1.5 nM
11 | OC[C@H]1O[C@H](OCCCc2ccccc2-c2ccccc2)[C@@H](O)[C@@H](O)[C@@H]1O [Compound 28] | 1.3e-08 ± 1.7e-09 M | –
12 | OC[C@H]1O[C@H](OCCCc2cccc3ccccc23)[C@@H](O)[C@@H](O)[C@@H]1O [Compound 29] | 2.2e-08 ± 3e-09 M | –
13 | OC[C@H]1O[C@H](OCCCSCc2ccccc2)[C@@H](O)[C@@H](O)[C@@H]1O [Compound 35] | 1.6e-08 ± 2.4e-09 M | –
14 | CCCCSCCCO[C@H]1O[C@H](CO)[C@@H](O)[C@H](O)[C@@H]1O [Compound 36] | 2.2e-08 ± 2.7e-09 M | –
15 | CCCSCCCO[C@H]1O[C@H](CO)[C@@H](O)[C@H](O)[C@@H]1O [Compound 37] | 1.4e-08 ± 5e-09 M | –
16 | CCSCCCO[C@H]1O[C@H](CO)[C@@H](O)[C@H](O)[C@@H]1O [Compound 38] | 1.4e-08 ± 7.6e-09 M | –
17 | CC(C)SCCCO[C@H]1O[C@H](CO)[C@@H](O)[C@H](O)[C@@H]1O [Compound 39] | 1.1e-08 ± 6.1e-09 M | –
18 | C#CCO[C@H]1O[C@H](CO)[C@@H](O)[C@H](O)[C@@H]1O [Compound 41] | 4.9e-07 ± 5.5e-08 M | –
19 | OC[C@H]1O[C@H](OCC#Cc2ccccc2)[C@@H](O)[C@@H](O)[C@@H]1O [Compound 50] | 1.68e-07 ± 1.5e-08 M | –
20 | OC[C@H]1O[C@H](OCC#Cc2ccc(-c3ccccc3)cc2)[C@@H](O)[C@@H](O)[C@@H]1O [Compound 51] | 4.05e-07 ± 2.4e-08 M | –
21 | OC[C@H]1O[C@H](OCC#Cc2ccccc2-c2ccccc2)[C@@H](O)[C@@H](O)[C@@H]1O [Compound 52] | 2.25e-06 ± 2.91e-07 M | –
22 | OC[C@H]1O[C@H](OCC#Cc2cccc3ccccc23)[C@@H](O)[C@@H](O)[C@@H]1O [Compound 53] | 1.2e-07 ± 1.8e-08 M | –
23 | OC[C@H]1O[C@H](OCC#Cc2cccs2)[C@@H](O)[C@@H](O)[C@@H]1O [Compound 54] | 1.33e-07 ± 3.1e-08 M | –
24 | OC[C@H]1O[C@H](OCC#Cc2cccnc2)[C@@H](O)[C@@H](O)[C@@H]1O [Compound 55] | 8.3e-08 ± 5.6e-09 M | –
25 | COc1ccc(C#CCO[C@H]2O[C@H](CO)[C@@H](O)[C@H](O)[C@@H]2O)cc1 [Compound 56] | 5.3e-08 ± 2.3e-09 M | –
26 | O=[N+]([O-])c1ccc(C#CCO[C@H]2O[C@H](CO)[C@@H](O)[C@H](O)[C@@H]2O)cc1 [Compound 57] | 8.16e-07 ± 1.05e-07 M | –
27 | OCC#Cc1ccc(O[C@H]2O[C@H](CO)[C@@H](O)[C@H](O)[C@@H]2O)cc1 [Compound 61] | 3.69e-08 ± 3e-09 M | Kd ([3]; Kd SPR (nM), Table S2): 6.9e-09 ± 1e-09 M
28 | COCC#Cc1ccc(O[C@H]2O[C@H](CO)[C@@H](O)[C@H](O)[C@@H]2O)cc1 [Compound 62] | – | Kd [1]: 59.5 ± 2.3 nM; Kd SPR (nM) ([3]; Table S2): nf; Kd SPR (nM) ([3]; solution affinity by SPR competition, Tables 1-3): nf *
